Measurements taken from patent US20070191315A1, “Method for administering ibandronate” (priority 2006, published 2007).

Test system: metastatic bone pain
Assay: Multicenter, randomized, active-controlled, double-blind trial of pain (BPI worst/average pain scales)
Assay type: in vivo
Details: patients; ibandronic acid 6 mg IV over 15 min on Days 1, 2 and 3, then 50 mg orally daily from Day 22; 24 weeks; compared to placebo treatment
Experimental: A multicenter, randomized, active-controlled, double-blind, parallel groups trial is conducted. Patients are centrally randomized via an interactive voice response system (IVRS) to treatment either with ibandronic acid or zoledronic acid. Study treatment begins within 96 hours of randomization. Treatment continues for 24 weeks. Patients record their pain on the WORST PAIN and the AVERAGE PAIN scales of the BPI, as well as daily analgesic use, on a nightly basis. Patients record the degree to which their pain interferes with normal functioning and any opioid side-effects weekly. WHO Performance Status, quality of life based on the EORTC QLQ-C30 instrument and quality of life based on the FACT-BP, an instrument specifically designed to measure quality of life in patients with bone pain are recorded at Day 8 and Weeks 6, 12, 18 and 24 of the trial. Patients have skeletal surveys performed at Baseline and at Weeks 12 and 24 as part of the monitoring of SREs. Patients randomized to the ibandronic acid arm receive ibandronic acid 6 mg intravenously over 15 minutes on Days 1, 2 and 3 of the trial, followed by ibandronic acid 50 mg orally daily beginning on Day 22 of the study. Patients also receive a placebo infusion every 3-4 weeks, depending on the underlying chemotherapy regimens patients may be receiving. Patients who are not receiving chemotherapy receive placebo infusions every 3 weeks. […]

## CCCCCN(C)CCC(O)(P(=O)(O)O)P(=O)(O)O [ibandronate, 3-(N-methyl-N-pentyl)amino-1-hydroxypropane-1,1-diphosphonic acid]
  pain scores: significantly lower pain scores
